# Assay results from PMC4674756, “NMR structure and function of Helicoverpa armigera sterol carrier protein-2, an important insecticidal target from the cotton bollworm” (Scientific Reports, 2015).
# What was measured:
# [1] = test system: Helicoverpa armigera larvae; assay: Cholesterol levels in fat body of larvae treated with SCP-2 inhibitors; format: in vivo; settings: fat body dissected at 5th instar
# Method: To investigate the effects of SCPI suppression on cholesterol absorption and accumulation in the fat body, in vivo experiments were conducted. The inhibitory effects of SCPIs on cholesterol uptake were tested at the early stages of 3rd and 4th instar larvae. H. armigera larvae were treated with SCPI-1 and mangostin. Because the fat body of insects is the main tissues of cholesterol storage, the fat bodies of the treated larvae were dissected at 5th instar and the concentration of cholesterol in the fat body was measured. […] Similarly, for the mangostin treatment group, there was a 2-fold decrease in the cholesterol levels (p = 0.05) (Fig. 9B 3rd) when the treatment started at 3rd instar stadium. […]
# Figure 9 The levels of cholesterol in Helicoverpa armigera larvae treated by SCP-2 inhibitors. The cholesterol levels in the fat body of Helicoverpa armigera larvae which were treated with two inhibitors (AeSCPI-1 and mangostin) were determined. […] The concentration of cholesterol and total protein from each sample were measured. […] Larvae were treated and samples were measured in the same way as AeSCPI-1. […]
# The H.armigera larvae were reared according to previous methods. […] Because the fat body of insects is the main tissue of cholesterol storage, the fat bodies of the treated larvae were dissected at 5th instar and the concentration of cholesterol in the fat body was measured. […]
# [2] = target: HaSCP-2 (Helicoverpa armigera, UniProt K7NSY9); assay: biochemical
# Sequence of HaSCP-2 (K7NSY9 entry or part of it): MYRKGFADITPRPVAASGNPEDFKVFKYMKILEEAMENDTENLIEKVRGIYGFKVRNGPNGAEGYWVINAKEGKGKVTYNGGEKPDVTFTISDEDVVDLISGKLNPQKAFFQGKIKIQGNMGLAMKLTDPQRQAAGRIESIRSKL
# Method: In the presence of each SCPI with an increasing concentrations (0–10 μM), HaSCP-2 (with final concentration of 5 μM) was incubated with NBD-cholesterol (with final concentration of 1.25 μM) in 100 μl of 10 mM KHPO4 buffer (pH 7.5) at 25 °C. Mixture samples were added into 96-well plates and fluorescence intensity was measured on the microplate reader (GeminiXPS, Molecular Devices). Excitation was at 485 nm and emission was measured at 530 nm. The results are analyzed from three repeated experiments with standard deviations. All the data were processed using a single site competition, non-linear regression model in the GraphPad PRISM software version 4.0 (GraphPad). The 50% effective concentration (EC50) was obtained using the equation 2:
# [3] = target: full length HaSCP-2 (Helicoverpa armigera, UniProt K7NSY9); assay: NBD-cholesterol binding assay, full length (deduced) HaSCP-2; settings: NBD-cholesterol 0.25 μM, protein 25 nM to 15 μM, one site binding non-linear regression, R^2 = 0.99
# Sequence of full length HaSCP-2 (K7NSY9 entry or part of it): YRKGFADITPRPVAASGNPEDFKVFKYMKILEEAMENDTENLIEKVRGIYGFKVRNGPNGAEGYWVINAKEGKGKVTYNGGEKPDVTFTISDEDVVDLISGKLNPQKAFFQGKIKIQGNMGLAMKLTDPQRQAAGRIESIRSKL
# Method: (§1) NBD-cholesterol binding assays were performed to investigate the biological function of HaSCP-2 in this study. Both the recombinant full length and trHaSCP-2 were examined for NBD-cholesterol binding (Kd). Glutathione S-transferase (GST) was used as a negative control as before. The final concentration of NBD-cholesterol was kept constant at 0.25 μM and the concentration of full length or truncated HaSCP-2 was tested in a range from 25 nM to 15 μM. The increasing concentration of full length or truncated HaSCP-2 led to the increase in the fluorescence emission value of NBD-cholesterol. […] The binding curves were analyzed by using the one site binding non-linear regression model adopted in the similar studies. […] It is quite likely that the N-terminal and C-terminal residues that were deleted may not be necessary for the ligand binding activity of HaSCP-2, as shown that no significant differences in binding affinity between the truncated HaSCP-2 and full length HaSCP-2.
# (§2) HaSCP-2 binding activity to cholesterol was determined by using NBD-cholesterol binding assays. […] Then, the samples were applied to measure the fluorescence signals using a fluorescence microplate reader (GeminiXPS, Molecular Devices). Fluorescence was excited at 485 nm and the emission was measured at 530 nm. […]
# [4] = target: HaSCP-2 I117M (Helicoverpa armigera, UniProt K7NSY9, I507M); format: binding; settings: mutant I117M; P vs WT 0.043
# Sequence of HaSCP-2 I117M (K7NSY9 entry or part of it I507M): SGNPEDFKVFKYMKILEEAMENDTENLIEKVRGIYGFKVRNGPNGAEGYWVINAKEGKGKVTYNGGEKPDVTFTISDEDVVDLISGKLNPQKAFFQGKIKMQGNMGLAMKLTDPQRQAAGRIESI
# Description: (§3) In order to further confirm the key residues of HaSCP-2 that are involved in the ligand binding, based on the HaSCP-2 structure and docking simulation results we selected several predicted amino acid residues as shown in Table 3 (cholesterol and β-sitosterol) to perform single site mutation experiments to investigate the mechanism of ligand binding in HaSCP-2.
# (§4) Single site amino acid mutations in the pGEX-KG/trHaSCP-2 were introduced using the QuikChange II Site-Directed Mutagenesis kit (Stratagene, La Jolla, CA). The Y51, F53, F89, I91, F110, I117 and Q131 sites of HaSCP-2 were selected to perform mutation.
# (§5) HaSCP-2 binding activity to cholesterol was determined by using NBD-cholesterol binding assays. In truncation experiments, deduced HaSCP-2 and truncated HaSCP-2 were used for NBD-cholesterol binding assay; while as in mutation experiment, truncated HaSCP-2 (defined as wild type HaSCP-2) and mutated HaSCP-2 were assayed. HaSCP-2 was diluted in 10 mM KHPO4 buffer (pH 7.4) to a serial of varied concentrations […], respectively.
# [5] = target: HaSCP-2 F89A (Helicoverpa armigera, UniProt K7NSY9, F479A); format: binding; settings: mutant F89A; P vs WT 0.038
# Sequence of HaSCP-2 F89A (K7NSY9 entry or part of it F479A): as the sequence (K7NSY9 entry or part of it I507M) above, with F73A, M101I counted along it
# Description: as §3, §4, §5
# [6] = target: HaSCP-2 F110W (Helicoverpa armigera, UniProt K7NSY9, F500W); format: binding; settings: mutant F110W; P vs WT 0.019
# Sequence of HaSCP-2 F110W (K7NSY9 entry or part of it F500W): as the sequence (K7NSY9 entry or part of it I507M) above, with F94W, M101I counted along it
# Description: as §3, §4, §5
# [7] = target: HaSCP-2 Y51A (Helicoverpa armigera, UniProt K7NSY9, Y441A); format: binding; settings: mutant Y51A; P vs WT 0.023
# Sequence of HaSCP-2 Y51A (K7NSY9 entry or part of it Y441A): as the sequence (K7NSY9 entry or part of it I507M) above, with Y35A, M101I counted along it
# Description: as §3, §4, §5
# [8] = target: HaSCP-2 Q131A (Helicoverpa armigera, UniProt K7NSY9, Q521A); format: binding; settings: mutant Q131A; P vs WT 0.034
# Sequence of HaSCP-2 Q131A (K7NSY9 entry or part of it Q521A): as the sequence (K7NSY9 entry or part of it I507M) above, with M101I, Q115A counted along it
# Description: as §3, §4, §5
# [9] = target: HaSCP-2 F53A (Helicoverpa armigera, UniProt K7NSY9, F443A); format: binding; settings: mutant F53A; P vs WT 0.031
# Sequence of HaSCP-2 F53A (K7NSY9 entry or part of it F443A): as the sequence (K7NSY9 entry or part of it I507M) above, with F37A, M101I counted along it
# Description: as §3, §4, §5
# [10] = target: HaSCP-2 F53W (Helicoverpa armigera, UniProt K7NSY9, F443W); format: binding; settings: mutant F53W; P vs WT 0.026
# Sequence of HaSCP-2 F53W (K7NSY9 entry or part of it F443W): as the sequence (K7NSY9 entry or part of it I507M) above, with F37W, M101I counted along it
# Description: as §3, §4, §5
# [11] = target: truncated HaSCP-2 (trHaSCP-2) (Helicoverpa armigera, UniProt K7NSY9); assay: NBD-cholesterol binding assay, truncated (wild type) HaSCP-2; settings: NBD-cholesterol 0.25 μM, protein 25 nM to 15 μM, one site binding non-linear regression, R^2 = 0.99
# Sequence of truncated HaSCP-2 (trHaSCP-2) (K7NSY9 entry or part of it): as the sequence (K7NSY9 entry or part of it I507M) above, with M101I counted along it
# Method: as §1, §2
Compound,"decrease in the cholesterol levels in the fat body ([1]; treatment started at 3rd instar stadium via diet, p = 0.05)",EC50 [2],"cholesterol levels in the fat body vs control group ([1]; larvae treated at 3rd instar stage via diet, p = 0.023)",Kd [3],Kd [4],Kd [5],Kd [6],Kd [7],Kd [8],Kd [9],Kd [10],Kd [11]
"COc1c(O)cc2oc3cc(O)c(CC=C(C)C)c(O)c3c(=O)c2c1CC=C(C)C [α-mangostin, 1,3,6-trihydroxy-7-methoxy-2,8-bis(3-methylbut-2-enyl)-9H-xanthen-9-one]",2 fold,730 nM,–,–,–,–,–,–,–,–,–,–
"Br.CC(=O)Nc1ccc(Nc2nc(-c3ccc(Cl)c(Cl)c3)cs2)cc1 [AeSCPI-1, N-(4-{[4-(3,4-dichlorophenyl)-1,3-thiazol-2-yl]amino}phenyl) acetamide hydrobromide]",–,760 nM,significantly lower,–,–,–,–,–,–,–,–,–
C[C@H](CNc1ccc([N+](=O)[O-])c2nonc12)[C@H]1CC[C@H]2[C@@H]3CC=C4C[C@@H](O)CC[C@]4(C)[C@H]3CC[C@]12C [NBD-cholesterol],–,–,–,2800 nM,1800 nM,3270 nM,3240 nM,2650 nM,3770 nM,3070 nM,3410 nM,2450 nM
